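These data come from cells grown in 96-well plates and exposed to compound for 48 hours at five concentrations. The concentration for 50% growth inhibition is given as GI50. The concentration for full growth arrest is given as TGI.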
Tests used:
Experiment in all cases: growth of human tumour cells (NCI), 48 h
A498 renal = system: A498 renal
COLO 205 colon = system: COLO 205 colon
KM12 colon = system: KM12 colon
MALME-3M melanoma = system: MALME-3M melanoma
NCI-H23 lung = system: NCI-H23 lung
OVCAR-3 ovarian = system: OVCAR-3 ovarian
RXF 393 renal = system: RXF 393 renal
SF-539 CNS = system: SF-539 CNS
SNB-75 CNS = system: SNB-75 CNS
UO-31 renal = system: UO-31 renal

SMILES | GI50 (A498 renal) [µM] | TGI (A498 renal) [µM] | GI50 (COLO 205 colon) [µM] | TGI (COLO 205 colon) [µM] | GI50 (KM12 colon) [µM] | TGI (KM12 colon) [µM] | GI50 (MALME-3M melanoma) [µM] | TGI (MALME-3M melanoma) [µM] | GI50 (NCI-H23 lung) [µM] | TGI (NCI-H23 lung) [µM] | GI50 (OVCAR-3 ovarian) [µM] | TGI (OVCAR-3 ovarian) [µM] | GI50 (RXF 393 renal) [µM] | TGI (RXF 393 renal) [µM] | GI50 (SF-539 CNS) [µM] | TGI (SF-539 CNS) [µM] | GI50 (SNB-75 CNS) [µM] | TGI (SNB-75 CNS) [µM] | GI50 (UO-31 renal) [µM] | TGI (UO-31 renal) [µM]
Nc1nc(/C=C\c2ccc([N+](=O)[O-])s2)nc(N2CCCC2)n1 | 16.6 | 34.6 | 0.524 | 3.5 | 1.22 | 6.51 | 12.3 | 28.5 | 5.84 | 18.6 | 3.49 | 12.2 | 3.99 | 21.1 | 8.24 | 30.4 | 15.1 | 44 | 7.58 | 22.2
O=C(Nc1ccncc1)C(=O)c1cn(S(=O)(=O)c2ccc(F)cc2)c2ccccc12 | 6.57 | 63.2 | 24.7 | > 100 | 1.49 | > 100 | 1.61 | 88.8 | 2.54 | > 100 | 1.76 | 7.6 | 2.6 | 8.72 | 2.1 | 53.7 | 2.76 | 15.7 | 2.64 | 48.3
CNCC#Cc1c(F)ccc2c1/C(=C/c1[nH]ccc1OC)C(=O)N2 | 0.179 | 1.41 | 0.113 | 0.48 | 0.0565 | 2.41 | 0.608 | 2.55 | 0.283 | 1.26 | 0.516 | 2.74 | 0.0454 | 0.147 | 0.243 | 0.853 | 0.0786 | 1.81 | 0.13 | 2.6
O=C(c1ccccc1)c1cc2ccccc2o1 | 39.9 | > 100 | > 100 | > 100 | > 100 | > 100 | > 100 | > 100 | > 100 | > 100 | 59.6 | > 100 | 88 | > 100 | > 100 | > 100 | 63.2 | > 100 | 21.3 | > 100
O=C1Nc2ccccc2/C1=N\[O-].O=C1Nc2ccccc2/C1=N\[O-].[Cu+2] | > 100 | > 100 | > 100 | > 100 | > 100 | > 100 | > 100 | > 100 | > 100 | > 100 | > 100 | > 100 | > 100 | > 100 | > 100 | > 100 | > 100 | > 100 | > 100 | > 100
NC(=O)C12CC3CC(CC(F)(C3)C1)C2 |  | > 100 |  | > 100 |  | > 100 |  | > 100 |  | > 100 |  | > 100 |  | > 100 |  | > 100 |  | > 100 |  | > 100
S=c1sc2c(Cl)nc(Cl)nc2n1-c1ccccc1 |  | > 100 |  | > 100 |  | > 100 |  | > 100 |  | 32.9 |  | 60.4 |  | 50.6 |  | > 100 |  | > 100 |  | > 100
Cc1ccc(/C=C/C(=O)c2sc(-c3nc(C)c(C(=O)/C=C/c4ccc(C)cc4)s3)nc2C)cc1 |  | > 100 |  | > 100 |  | > 100 |  | > 100 |  | > 100 |  | > 100 |  | > 100 |  | > 100 |  | > 100 |  | > 100
CCOc1ccccc1NC(=O)C(=O)CC(=O)c1sc(Nc2nnc(-c3ccc(Cl)c(Cl)c3)o2)nc1C |  | > 100 |  | > 100 |  | > 100 |  | > 100 |  | > 100 |  | > 100 |  | > 100 |  | > 100 |  | > 100 |  | > 100
COc1ccc2[nH]cc(C3(c4c[nH]c5ccc(OC)cc45)C(=O)Nc4ccc(F)cc43)c2c1 | 2.56 | 12 | 1.69 | 3.05 | 2.58 | 6.96 | 2.44 | 22.4 | 2.43 | 8.06 | 2.15 | 4.42 | 2.31 | 6.54 | 3.24 | 10.5 | 1.38 | 8.23 | 1.51 | 11.9
COc1cccc(C2=NC(C(C)C)CO2)c1 (stereo not given) |  | > 100 |  | > 100 |  | > 100 |  | > 100 |  | > 100 |  | > 100 |  | > 100 |  | > 100 |  | > 100 |  | > 100
COc1ccc(-c2nn(-c3ccc(NC(=O)c4ccc(Cl)c(Cl)c4)cc3)cc2-c2ccncc2)cc1Cl | 1.26 | 4.52 | 1.45 | 3.8 | 1.59 | > 50 | 5.88 | > 50 | > 12.7 | > 50 | > 20.3 | > 50 | 0.804 | 1.75 | 1.55 | > 19 | 1.26 | > 50 | 2.07 | > 50
